Patent US20190046558A1, “COMPOSITION AND METHODS OF INHIBITING AMYLASE-MEDIATED HYDROLYSIS OF ALPHA (1 to 4)-LINKED GLUCOSE POLYMERS” (priority 2015, published 2019)

Biological target: T1, porcine pancreatic α-amylase (Sus scrofa, UniProt P00690)
T1 construct: purchased Megazyme, Inc
T1 sequence (P00690 16-511): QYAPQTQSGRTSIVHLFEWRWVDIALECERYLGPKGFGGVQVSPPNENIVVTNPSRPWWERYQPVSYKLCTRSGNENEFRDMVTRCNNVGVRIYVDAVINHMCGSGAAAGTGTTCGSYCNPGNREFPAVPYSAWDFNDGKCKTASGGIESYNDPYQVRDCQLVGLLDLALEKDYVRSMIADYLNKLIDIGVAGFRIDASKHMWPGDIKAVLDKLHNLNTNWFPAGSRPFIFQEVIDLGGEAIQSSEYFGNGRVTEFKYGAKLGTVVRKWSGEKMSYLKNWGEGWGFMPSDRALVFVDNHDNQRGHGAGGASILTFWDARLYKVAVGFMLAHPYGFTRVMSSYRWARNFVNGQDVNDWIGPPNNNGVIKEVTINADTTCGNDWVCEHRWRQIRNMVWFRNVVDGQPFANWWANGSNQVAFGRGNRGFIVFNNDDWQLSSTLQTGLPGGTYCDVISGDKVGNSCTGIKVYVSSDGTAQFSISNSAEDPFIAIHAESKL
Assay: colorimetric starch-iodine assay of amylase-mediated starch hydrolysis
Format: biochemical
Conditions: read-out: Fraction Inhibited (starch-iodine assay)
Experimental: The effectiveness of GMα (panel A) and GMβ (panel) to inhibit starch hydrolysis (1 mg/ml) mediated by porcine pancreatic α-amylase (1 μM) is shown as a function of the concentration of GMα and GMβ. The Fraction of Reaction Inhibited was calculated using U/ml values determined from the iodine-starch assay as described by (ref), with U/ml=(As62 control−As62 sample)/(As62 starch×20 min×0.1 ml reaction volume), a value that can be interpreted as mg of starch hydrolyzed per minute. The Fraction of “Unfolded” Starch was calculated in the absence of enzyme as A562 taken in the presence of GMα (panel C) and GMβ (panel D) divided by A562 taken in the absence of the GM. General solution conditions are 20 mM potassium phosphate, pH 7, 30° C.;
A standard curve was constructed using 100 μL of 6 concentrations (0-1.0 mg/ml) and 100 μL of soluble starch. A total of 100 μL of 1 mg/ml of soluble starch+/−varying concentrations of GMs were incubated for 20 minutes at 30° C.+/−5 μL enzyme, for a total concentration of 1 μM PPA/well, and the absorbance read at 520 nm.

C[C@H]1O[C@H](O[C@H]2[C@H](O)[C@@H](O)[C@@H](O[C@H]3[C@H](O)[C@@H](O)C(O)O[C@@H]3CO)O[C@@H]2CO)[C@H](O)[C@@H](O)[C@@H]1N[C@H]1C=C(CO)[C@@H](O)[C@H](O)[C@H]1O (stereo partly shown) [Acarbose, acarbose] showed an inhibition at 400 µM of 79%.
